According to patent US11865125B2, “APKC inhibitors and methods of treating a neurodegenerative disease or disorder” (UNIVERSITY OF SOUTH FLORIDA, priority 2016, dated 2024):
Entries after “also recorded” stand apart in the source; their conditions may differ.

Columns and labels:
[1] = cited from earlier work
[2] = molecular target: T1, 70 kDa PKC-λ/ι (Mus musculus, UniProt Q62074); experiment: brain aPKC (PKC-λ/ι) phosphorylation/activity in mice; assay type: in vivo
T1 construct: insulin-sensitive 70 kDa PKC-λ/ι in brains of Het-MλKO mice; from tissue; host or cells: mouse brain homogenate
T1 sequence (Q62074 1-595): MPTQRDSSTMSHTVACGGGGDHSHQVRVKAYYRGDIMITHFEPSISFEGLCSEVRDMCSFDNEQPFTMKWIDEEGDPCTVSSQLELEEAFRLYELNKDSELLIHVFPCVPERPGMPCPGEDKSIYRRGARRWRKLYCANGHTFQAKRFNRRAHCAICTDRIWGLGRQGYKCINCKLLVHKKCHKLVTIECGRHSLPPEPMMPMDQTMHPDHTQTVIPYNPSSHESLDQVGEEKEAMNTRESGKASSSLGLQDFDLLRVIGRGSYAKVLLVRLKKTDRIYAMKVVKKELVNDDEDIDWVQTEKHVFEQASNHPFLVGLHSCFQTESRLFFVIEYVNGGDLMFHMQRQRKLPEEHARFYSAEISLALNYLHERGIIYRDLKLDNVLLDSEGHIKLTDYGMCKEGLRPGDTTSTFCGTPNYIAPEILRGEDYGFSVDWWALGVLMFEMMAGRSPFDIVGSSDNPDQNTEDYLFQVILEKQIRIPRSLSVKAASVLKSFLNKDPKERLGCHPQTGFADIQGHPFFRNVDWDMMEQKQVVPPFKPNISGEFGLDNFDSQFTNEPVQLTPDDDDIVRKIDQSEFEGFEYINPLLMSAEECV
Excerpt: (§1) Mouse Studies. Brain samples were obtained from normal and insulin-resistant mice and monkeys used previously, and includes mice originally used in studies of insulin signaling and resistance in liver: (a) 4-6 month old C57Bl/6 mice used in studies of high-fat-feeding [USF Vivarium] [6]; 4-6 month-old male C57Bl/6 ob/ob and lean ob+ mice (Jackson Labs, Bar Harbor, Maine); and (c) 10-12 month-old C57Bl/6 Het-MλKO mice [USF Vivarium] [8]. […] Where indicated normal mice were given a single SC injection of saline or saline containing 1.5 mg/kg ICAPP to follow time-related alterations in brain signaling factors. Where indicated, mice were treated intraperitoneally (IP) with insulin (1 U/kg body weight) or vehicle 15-min before euthanization by administration of Xylazine/Ketamine, followed by whole body perfusion with phosphate-buffered saline and rapid removal of brain and other tissues.
(§2) Tissue Preparations. As described, mouse brains were hemisected sagittally, and one-half was frozen in liquid N2, stored at −80° C., and samples thereof were homogenized in buffer containing 0.25M sucrose, 20 mM Tris/HCl (pH, 7.5), 2 mmol/l EGTA, 2 mM EDTA, 1 mM phenlysulfonoylfluoride (PMSF), 20 μg/ml leupeptin, 10 μg/ml aprotinin, 2 mM Na4P2O7, 2 mM Na3VO4, 2 mM NaF, and 1 μM microcystin, and then supplemented with 1% TritonX-100, 0.6% Nonidet and 150 mM NaCl.
(§3) Western Analyses. As described, Western analyses were conducted with rabbit antisera or mouse monoclonal antibodies (mMab), using: anti-aPKC (Santa Cruz Biotechnologies, Santa Cruz, CA); anti-phospho-threonine-560/555-PKC-ζ/λ/ι (Invitrogen, Carlsbad, CA); anti-p-serine-256-FoxO1 and anti-FoxO1 (Abnova, Walnut, CA); anti-Akt (mMab), anti-phospho-serine-473-Akt, anti-phospho-serine-9-GSK3P anti-GSK313, anti-phospho-serine-253-FoxO3a, anti-FoxO3a, anti-phospho-serine-256-FoxO1, anti-phospho-serine-193-FoxO4; anti-FoxO1, anti-phospho-serine-2448-mTOR, anti-mTOR, anti-β-amyloid (anti-5-10 kDa-Aβ1-40/42) and anti-amyloid precursor protein (anti-120 kDa-APP) (Cell Signaling Technologies, Danvers, MA); and anti-phospho-serine-202-tau, anti-phospho-threonine-231-tau (Gene Tex, Irvine, CA). Samples from experimental groups were compared on the same blots, and routinely checked with loading controls. Note that: insulin-sensitive 70 kDa aPKC is largely PKC-ζ in mouse brain and orthologous PKC-ι (98% aa homology) in monkey and other primate brains; brain PKC-ζ exists largely as a 50 kDa moiety that, lacking a regulatory domain, is constitutively-active and unresponsive to insulin.
(§4) Where indicated, mice were randomly treated with insulin (1 unit/kg/bw i.p.) 15 min before being euthanized by administration of xylazine/ketamine, followed by whole-body perfusion with PBS and rapid removal of brain and other tissues.

[3] = system: aPKC; experiment: aPKC activity in LA1-5s neuroblastoma cells; assay type: cell-based, human
[4] = system: β-secretase (BACE1); experiment: brain β-secretase activity (BACE1) in mice; assay type: in vivo, mouse; conditions: normal WT mice, insulin 1 U/kg i.p. 15 min
Excerpt: Mouse Studies. Brain samples were obtained from normal and insulin-resistant mice and monkeys used previously, and includes mice originally used in studies of insulin signaling and resistance in liver: (a) 4-6 month old C57Bl/6 mice used in studies of high-fat-feeding [USF Vivarium] [6]; 4-6 month-old male C57Bl/6 ob/ob and lean ob+ mice (Jackson Labs, Bar Harbor, Maine); and (c) 10-12 month-old C57Bl/6 Het-MλKO mice [USF Vivarium] [8]. Males and females were comparably present in experimental groups, and sex didn't appreciably alter combined findings. Hepatic alterations, clinical characteristics and ameliorating effects of liver-selective aPKC inhibitors were reported previously. […] Where indicated, Het-MλKO were injected subcutaneously (SC) once daily for 8 days with saline or 1H-imidazole-4-carboxamide,5-amino]-(2,3-dihydroxy-4-[(phosphono-oxy)methyl]cyclopentane-[1R-(1a,2b,3b,4a)] (ICAPP) 0.4 mg/kg body weight) in saline, to inhibit hepatic aPKC, and thus diminish aPKC-dependent expression of hepatic gluconeogenic and lipogenic enzymes, and thereby reduce serum insulin levels to near-normal. Where indicated normal mice were given a single SC injection of saline or saline containing 1.5 mg/kg ICAPP to follow time-related alterations in brain signaling factors. Where indicated, mice were treated intraperitoneally (IP) with insulin (1 U/kg body weight) or vehicle 15-min before euthanization by administration of Xylazine/Ketamine, followed by whole body perfusion with phosphate-buffered saline and rapid removal of brain and other tissues.
as §2
(§5) β-Secretase Activity (BACE1; beta-site APP-cleaving enzyme-1). β-Secretase was measured was measured using a kit from Thermo-Fisher.

[5] = system: β-secretase (BACE1); experiment: β-secretase activity (BACE1) in LA1-5s neuroblastoma cells; assay type: cell-based, human; conditions: LA1-5s cells
Experimental: (§6) Relative bar values in panel a are mean±SEM of 6 determinations. Asterisks: *, P<0.05; **, P<0.01; ***, P<0.001 (ANOVA). Values in panel b are means of 2-4 determinations.
(§7) Shown here are Mean±SEM (N=4) values relative to the mean initial basal or insulin-stimulated level of indicated immunoreactive protein/peptide. Asterisks: *, P<0.05; **, P<0.01; ***, P<0.001 (ANOVA).
as §5

[6] = system: Aβ1-40/42; experiment: brain Aβ1-40/42 peptide levels in mice; assay type: in vivo, mouse; conditions: control mice, insulin 1 unit/kg i.p. 15 min
Excerpt: as §1, §2, §3, §4

[7] = system: Akt substrates, GSK3β and mTOR; experiment: phosphorylation of Akt substrates in LA1-5s neuroblastoma cells; assay type: cell-based, human; conditions: 200 nM insulin
Experimental: as §6, §3

[8] = system: Akt; experiment: brain Akt phosphorylation/activity in mice; assay type: in vivo, mouse; conditions: control mice, insulin 1 unit/kg i.p. 15 min
Excerpt: as §1, §2, §3, §4

[9] = system: Aβ1-40/42; experiment: Aβ1-40/42 levels in LA1-5s neuroblastoma cells; assay type: cell-based, human; conditions: for effect on levels of Aβ1-40/42: LA1-5s cells
Experimental: as §6, §7, §3

[10] = system: Akt; experiment: Akt activity in LA1-5s neuroblastoma cells; assay type: cell-based, human; conditions: 200 nM insulin
Experimental: as §6, §7, §3

[11] = system: Akt; experiment: Akt activity in human hepatocytes; assay type: cell-based; conditions: normal human hepatocytes, 100 μM metformin, preliminary studies
Excerpt: (§8) Relative values. Mean±SEM (N=4-8). Asterisks: *, P<0.05; **, P<0.01; ***, P<0.001.

[12] = system: phospho-thr-231-tau; experiment: phospho-thr-231-tau levels in LA1-5s neuroblastoma cells; assay type: cell-based, human; conditions: LA1-5s cells, metformin alone
Experimental: as §7, §3

[13] = system: aPKC; experiment: aPKC activity in human hepatocytes; assay type: cell-based; conditions: normal human hepatocytes, 100 μM metformin, preliminary studies
Excerpt: as §8

[14] = system: SREBP-1c, FAS, ACC, PEPCK, G6Pase, and PGC-1α; experiment: expression of lipogenic and gluconeogenic enzymes in human hepatocytes; assay type: cell-based
Excerpt: Relative values are Mean±SEM (N=4-8). Asterisks: *, P<0.05; **, P<0.01; ***, P<0.001. ANOVA.

[15] = neuroblastoma cells, 200 nM insulin, 1 hour

## NC(=O)c1ncn([C@@H]2C[C@H](CO)[C@@H](O)[C@H]2O)c1N [ICAP, reference compound]
[1]; HFF and ob/ob mice, doses effective on hepatic aPKC, initial studies
  hyperinsulinemia, with regard to hyperactivation of CNS Akt and aPKC: did not improve hyperinsulinemia sufficiently
[2]; normal mice, doses employed in the initial studies
  acute effects of insulin on CNS aPKC activity: unable to diminish acute effects of insulin on CNS aPKC activity

## insulin
[3]; LA1-5s cells, 200 nM insulin, 24 hours
  effect on aPKC activity: elicited increases
[3]; [15]
  effect on aPKC activity: can increase
[4]
  brain β-secretase activity (BACE1): accompanied by increases
[5]; 200 nM insulin, 24 hours
  effect on activity of β-secretase: elicited increases
[6]
  brain Aβ1-40/42 peptide levels: increased
[7]; LA1-5s cells, 24 hours
  effect on phosphorylation of Akt substrates, GSK3β and mTOR: elicited increases
[7]; neuroblastoma cells, 1 hour
  effect on Akt-dependent GSK3β and mTOR phosphorylation: can increase
[2]; control mice, insulin 1 unit/kg i.p. 15 min
  brain aPKC activity: provoked increases
[8]
  brain Akt activity: provoked increases
[9]; 200 nM insulin, 24 hours
  effect on levels of Aβ1-40/42: elicited increases
[9]; [15]
  effect on Aβ1-40/42 peptide levels: can increase
[10]; LA1-5s cells, 24 hours
  effect on Akt activity: elicited increases
[10]; neuroblastoma cells, 1 hour
  effect on Akt activity: can increase

## O=C(O)CC([S-])C(=O)O.[Au+] (stereo not drawn) [ATM, aurothiomalate]
[1]; Het-MλKO mice, reported previously
  serum insulin levels / hyperinsulinemia: fully/sufficiently improved; also recorded: reduced serum insulin levels to normal

## CN(C)C(=N)N=C(N)N [metformin]
[3]; LA1-5s cells, metformin alone
  effect on aPKC activity: increase
[11]
  Akt activation and action: impairments in Akt activation and action
[5]; metformin alone
  effect on β-secretase activity: increase
[12]
  effect on levels of phospho-thr-231-tau: increase
[9]; metformin alone
  effect on levels of Aβ1-40/42: increase
[13]
  aPKC activity: increases in aPKC activity
[14]; hepatocytes, metformin
  SREBP-1c activity and expression of lipogenic enzymes: increases in activity of SREBP-1c and SREBP-1c-dependent expression of lipogenic enzymes
[14]; normal human hepatocytes, 100 μM metformin, preliminary studies
  gluconeogenic enzyme expression: increases in gluconeogenic enzyme expression
